Here are results for 13 molecules from ChEMBL document CHEMBL3991601, “The target landscape of clinical kinase drugs” (Science, 2017).

Calls of active or inactive are those of the source. Some results are limits rather than exact numbers.

The target in one assay is Obg-like ATPase 1 (Homo sapiens, UniProt Q9NTK5).
The target of assay [1] is T1, Structural maintenance of chromosomes protein 1A (Homo sapiens, UniProt Q14683).
T1 sequence (Q14683 whole entry): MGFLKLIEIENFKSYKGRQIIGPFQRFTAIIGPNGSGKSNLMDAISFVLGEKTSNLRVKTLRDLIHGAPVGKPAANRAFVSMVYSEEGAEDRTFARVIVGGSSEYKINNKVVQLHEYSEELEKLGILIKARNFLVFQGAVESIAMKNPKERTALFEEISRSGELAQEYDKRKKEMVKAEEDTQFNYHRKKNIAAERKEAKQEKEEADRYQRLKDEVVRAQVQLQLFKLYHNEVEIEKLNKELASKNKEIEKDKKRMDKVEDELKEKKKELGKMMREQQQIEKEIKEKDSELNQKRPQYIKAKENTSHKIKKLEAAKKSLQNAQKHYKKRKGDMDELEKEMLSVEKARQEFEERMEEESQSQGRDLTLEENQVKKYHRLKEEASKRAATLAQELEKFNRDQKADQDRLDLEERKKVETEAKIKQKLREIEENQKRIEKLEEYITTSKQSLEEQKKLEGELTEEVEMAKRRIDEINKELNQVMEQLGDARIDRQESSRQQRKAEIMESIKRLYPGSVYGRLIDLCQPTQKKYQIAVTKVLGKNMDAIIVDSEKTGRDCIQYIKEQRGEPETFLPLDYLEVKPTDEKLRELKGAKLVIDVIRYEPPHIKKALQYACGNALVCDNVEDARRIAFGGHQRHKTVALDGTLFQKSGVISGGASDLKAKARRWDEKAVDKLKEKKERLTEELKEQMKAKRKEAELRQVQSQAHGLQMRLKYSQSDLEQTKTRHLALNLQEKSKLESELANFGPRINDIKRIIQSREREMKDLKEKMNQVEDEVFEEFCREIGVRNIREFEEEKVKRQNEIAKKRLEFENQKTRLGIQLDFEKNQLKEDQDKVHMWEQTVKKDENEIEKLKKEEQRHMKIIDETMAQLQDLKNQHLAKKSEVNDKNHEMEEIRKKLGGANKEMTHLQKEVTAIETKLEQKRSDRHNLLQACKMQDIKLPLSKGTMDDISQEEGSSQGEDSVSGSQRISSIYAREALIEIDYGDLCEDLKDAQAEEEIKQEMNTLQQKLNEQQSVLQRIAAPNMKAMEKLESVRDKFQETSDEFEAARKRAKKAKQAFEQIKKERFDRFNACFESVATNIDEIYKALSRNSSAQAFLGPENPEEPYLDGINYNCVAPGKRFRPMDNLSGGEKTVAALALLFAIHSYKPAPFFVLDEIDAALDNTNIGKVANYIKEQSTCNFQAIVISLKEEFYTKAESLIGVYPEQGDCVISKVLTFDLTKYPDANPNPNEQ

Assay [2] has as its target T2, Non-receptor tyrosine-protein kinase TNK1 (Homo sapiens, UniProt Q13470).
T2 sequence (Q13470 whole entry): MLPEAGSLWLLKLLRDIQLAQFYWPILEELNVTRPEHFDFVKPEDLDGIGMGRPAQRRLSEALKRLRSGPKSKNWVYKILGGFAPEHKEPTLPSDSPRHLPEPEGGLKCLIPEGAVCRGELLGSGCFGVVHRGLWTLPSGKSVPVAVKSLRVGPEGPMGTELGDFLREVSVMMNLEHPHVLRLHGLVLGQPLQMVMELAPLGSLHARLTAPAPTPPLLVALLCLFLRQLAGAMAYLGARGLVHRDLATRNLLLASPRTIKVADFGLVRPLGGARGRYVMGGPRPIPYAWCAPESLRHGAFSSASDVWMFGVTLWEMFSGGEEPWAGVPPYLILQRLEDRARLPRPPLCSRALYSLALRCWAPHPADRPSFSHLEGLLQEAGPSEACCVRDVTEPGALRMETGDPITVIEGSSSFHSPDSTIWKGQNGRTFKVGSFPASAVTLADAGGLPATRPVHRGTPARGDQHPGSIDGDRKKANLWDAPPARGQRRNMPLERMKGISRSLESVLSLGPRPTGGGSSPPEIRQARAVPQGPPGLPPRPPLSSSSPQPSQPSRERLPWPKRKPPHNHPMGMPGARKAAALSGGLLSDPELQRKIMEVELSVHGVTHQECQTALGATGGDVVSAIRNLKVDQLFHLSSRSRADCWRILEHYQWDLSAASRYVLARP

The target in assay [3] is Atypical kinase COQ8A, mitochondrial (Homo sapiens, UniProt Q8NI60).
A further assay addresses LIM domain kinase 1 (Homo sapiens, UniProt P53667).
The target in assay [4] is Serine/threonine-protein kinase/endoribonuclease IRE2 (Homo sapiens, UniProt Q76MJ5).
Assay [5] has as its target Serine/threonine-protein kinase PAK 2 (Homo sapiens, UniProt Q13177).
Assay [6] deals with T3, ATP-dependent RNA helicase DDX1 (Homo sapiens, UniProt Q92499).
T3 sequence (Q92499 whole entry): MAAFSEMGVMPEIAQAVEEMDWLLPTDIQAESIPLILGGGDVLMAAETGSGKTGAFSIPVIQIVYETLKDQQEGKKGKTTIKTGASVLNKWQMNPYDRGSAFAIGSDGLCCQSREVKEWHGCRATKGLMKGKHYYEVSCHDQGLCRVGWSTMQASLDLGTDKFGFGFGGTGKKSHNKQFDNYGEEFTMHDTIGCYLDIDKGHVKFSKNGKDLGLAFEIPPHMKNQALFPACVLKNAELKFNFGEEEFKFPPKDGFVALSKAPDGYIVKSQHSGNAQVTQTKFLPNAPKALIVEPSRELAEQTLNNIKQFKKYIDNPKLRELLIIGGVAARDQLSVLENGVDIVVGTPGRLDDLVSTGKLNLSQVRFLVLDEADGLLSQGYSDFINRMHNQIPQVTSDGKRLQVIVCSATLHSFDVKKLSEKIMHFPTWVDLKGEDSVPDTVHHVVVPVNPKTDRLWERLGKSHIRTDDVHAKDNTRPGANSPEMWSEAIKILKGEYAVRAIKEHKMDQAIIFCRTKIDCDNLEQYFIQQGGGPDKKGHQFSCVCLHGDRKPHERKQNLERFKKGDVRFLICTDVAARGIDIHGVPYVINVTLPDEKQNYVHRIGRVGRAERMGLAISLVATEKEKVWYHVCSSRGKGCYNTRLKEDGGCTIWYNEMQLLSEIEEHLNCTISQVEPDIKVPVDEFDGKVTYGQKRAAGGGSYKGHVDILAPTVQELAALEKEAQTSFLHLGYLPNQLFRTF
Note: in the data inactive means no Kd found up to 30 µM.

Sequence of Serine/threonine-protein kinase/endoribonuclease IRE2 (Q76MJ5 whole entry): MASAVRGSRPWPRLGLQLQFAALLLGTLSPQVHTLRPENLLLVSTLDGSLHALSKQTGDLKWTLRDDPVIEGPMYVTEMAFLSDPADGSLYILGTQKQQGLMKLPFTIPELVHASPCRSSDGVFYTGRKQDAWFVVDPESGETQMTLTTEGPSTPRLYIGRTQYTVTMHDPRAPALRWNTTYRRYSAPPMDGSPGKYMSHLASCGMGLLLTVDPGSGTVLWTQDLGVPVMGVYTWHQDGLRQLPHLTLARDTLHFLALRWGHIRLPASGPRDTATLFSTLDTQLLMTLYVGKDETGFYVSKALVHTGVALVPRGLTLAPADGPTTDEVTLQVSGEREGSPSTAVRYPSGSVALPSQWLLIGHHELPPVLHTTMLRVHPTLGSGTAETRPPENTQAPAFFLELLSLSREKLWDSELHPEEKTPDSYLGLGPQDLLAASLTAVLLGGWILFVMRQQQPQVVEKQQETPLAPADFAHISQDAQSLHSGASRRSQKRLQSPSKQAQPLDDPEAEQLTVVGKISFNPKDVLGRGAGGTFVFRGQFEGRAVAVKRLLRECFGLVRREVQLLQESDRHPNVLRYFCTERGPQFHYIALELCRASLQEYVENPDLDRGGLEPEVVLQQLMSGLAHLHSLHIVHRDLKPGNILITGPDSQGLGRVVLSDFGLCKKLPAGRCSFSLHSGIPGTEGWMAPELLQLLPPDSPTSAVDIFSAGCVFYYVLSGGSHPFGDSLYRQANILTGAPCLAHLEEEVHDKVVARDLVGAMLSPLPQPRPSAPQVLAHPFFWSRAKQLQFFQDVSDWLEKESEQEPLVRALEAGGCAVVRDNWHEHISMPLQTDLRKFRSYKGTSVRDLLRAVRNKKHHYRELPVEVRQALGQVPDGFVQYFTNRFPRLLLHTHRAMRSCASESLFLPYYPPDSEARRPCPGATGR
Sequence of LIM domain kinase 1 (P53667 whole entry, the tested form may be a part): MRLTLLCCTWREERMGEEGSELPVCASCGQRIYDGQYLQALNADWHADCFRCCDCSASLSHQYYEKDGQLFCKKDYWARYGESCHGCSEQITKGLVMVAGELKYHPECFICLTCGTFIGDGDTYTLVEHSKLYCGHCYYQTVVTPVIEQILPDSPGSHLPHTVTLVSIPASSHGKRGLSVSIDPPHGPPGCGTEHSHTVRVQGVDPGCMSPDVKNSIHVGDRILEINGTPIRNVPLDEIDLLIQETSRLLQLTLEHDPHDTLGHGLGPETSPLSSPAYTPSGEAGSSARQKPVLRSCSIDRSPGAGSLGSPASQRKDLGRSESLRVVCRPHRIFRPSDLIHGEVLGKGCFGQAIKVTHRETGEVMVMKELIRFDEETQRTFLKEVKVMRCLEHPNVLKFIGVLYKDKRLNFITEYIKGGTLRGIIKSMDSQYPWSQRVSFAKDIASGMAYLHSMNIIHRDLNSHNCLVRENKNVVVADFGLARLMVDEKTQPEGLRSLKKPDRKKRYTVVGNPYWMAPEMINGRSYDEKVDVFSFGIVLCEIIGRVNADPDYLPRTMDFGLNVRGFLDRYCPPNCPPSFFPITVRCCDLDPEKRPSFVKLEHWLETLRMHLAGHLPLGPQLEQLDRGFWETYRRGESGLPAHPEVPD
Sequence of Atypical kinase COQ8A, mitochondrial (Q8NI60 whole entry, the tested form may be a part): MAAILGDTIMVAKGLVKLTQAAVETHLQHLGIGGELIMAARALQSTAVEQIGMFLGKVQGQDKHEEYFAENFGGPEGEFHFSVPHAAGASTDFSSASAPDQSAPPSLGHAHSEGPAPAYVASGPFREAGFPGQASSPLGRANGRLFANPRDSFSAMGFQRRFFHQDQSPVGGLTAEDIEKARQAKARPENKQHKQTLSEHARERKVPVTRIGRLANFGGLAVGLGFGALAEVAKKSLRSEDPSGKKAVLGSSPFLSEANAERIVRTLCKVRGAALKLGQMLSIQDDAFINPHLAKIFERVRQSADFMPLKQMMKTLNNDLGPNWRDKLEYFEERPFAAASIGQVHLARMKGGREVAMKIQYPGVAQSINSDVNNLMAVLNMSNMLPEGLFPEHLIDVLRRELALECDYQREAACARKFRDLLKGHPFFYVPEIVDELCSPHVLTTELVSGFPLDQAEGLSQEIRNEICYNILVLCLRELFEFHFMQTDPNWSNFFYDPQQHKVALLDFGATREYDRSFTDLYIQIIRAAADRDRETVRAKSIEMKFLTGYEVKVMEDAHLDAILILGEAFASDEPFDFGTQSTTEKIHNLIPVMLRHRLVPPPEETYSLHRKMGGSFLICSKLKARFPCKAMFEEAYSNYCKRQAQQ
Sequence of Serine/threonine-protein kinase PAK 2 (Q13177 whole entry): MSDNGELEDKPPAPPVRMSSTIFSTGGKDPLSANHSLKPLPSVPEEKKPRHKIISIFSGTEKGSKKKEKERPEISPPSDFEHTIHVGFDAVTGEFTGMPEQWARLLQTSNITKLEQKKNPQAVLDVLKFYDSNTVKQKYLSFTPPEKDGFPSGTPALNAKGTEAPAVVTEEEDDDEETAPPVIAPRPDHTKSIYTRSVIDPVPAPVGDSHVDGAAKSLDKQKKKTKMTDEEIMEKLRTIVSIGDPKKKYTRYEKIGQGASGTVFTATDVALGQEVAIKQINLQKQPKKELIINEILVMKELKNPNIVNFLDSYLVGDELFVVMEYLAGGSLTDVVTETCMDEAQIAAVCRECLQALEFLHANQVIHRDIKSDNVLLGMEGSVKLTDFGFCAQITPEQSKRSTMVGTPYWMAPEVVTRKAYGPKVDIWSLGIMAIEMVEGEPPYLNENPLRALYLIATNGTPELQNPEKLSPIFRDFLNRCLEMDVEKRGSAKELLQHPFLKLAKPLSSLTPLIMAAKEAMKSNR
Sequence of Obg-like ATPase 1 (Q9NTK5 whole entry, looked up): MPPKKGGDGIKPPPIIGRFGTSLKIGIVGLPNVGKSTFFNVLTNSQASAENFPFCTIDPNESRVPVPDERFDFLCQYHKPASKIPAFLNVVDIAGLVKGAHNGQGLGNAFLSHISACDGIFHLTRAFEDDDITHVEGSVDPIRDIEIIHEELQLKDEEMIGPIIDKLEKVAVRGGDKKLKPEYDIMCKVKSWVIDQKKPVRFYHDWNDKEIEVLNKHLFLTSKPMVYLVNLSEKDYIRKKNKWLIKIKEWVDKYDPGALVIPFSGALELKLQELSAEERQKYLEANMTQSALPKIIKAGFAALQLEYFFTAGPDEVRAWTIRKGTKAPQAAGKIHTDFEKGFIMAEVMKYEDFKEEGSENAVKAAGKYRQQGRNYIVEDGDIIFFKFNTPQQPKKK

Consider `CC(=O)c1cnc2ccc(-c3cc(Cl)c(O)c(Cl)c3)nc2c1N[C@H]1CC[C@H](CN(C)C)CC1`, for which the Kd (as a rule, the constant that tells how readily two partners part at equilibrium) on Obg-like ATPase 1 is > 30 µM (inactive); in assay [1], > 30 µM (inactive); in assay [2], 1.78 µM (active); in assay [3], > 30 µM (inactive); at LIM domain kinase 1, > 30 µM (inactive); in assay [4] it was > 30 µM (inactive). The Kd in assay [5] and in assay [6] was > 30 µM (inactive) in each case.
`CCNC(=O)C#Cc1ccc2c(c1)NC(=O)/C2=C(\Nc1ccc(CN(C)C)cc1)c1ccccc1`: the Kd (at Obg-like ATPase 1; in assay [1]; in assay [2]; in assay [3]; on LIM domain kinase 1; in assay [4]) was > 30 µM (inactive) in each case. The Kd in assay [5] and in assay [6] was > 30 µM (inactive) in each case.
Take `Cc1nc2cc(-c3nn(C(C)C)c4ncnc(N)c34)ccc2o1`: the Kd at Obg-like ATPase 1 is > 30 µM (inactive); in assay [1] it was > 30 µM (inactive); in assay [2] it was > 30 µM (inactive); in assay [3] it was > 30 µM (inactive); on LIM domain kinase 1, 1.85 µM (active); in assay [4], > 30 µM (inactive). Moreover, the Kd in assay [5] and in assay [6] was > 30 µM (inactive) in each case.
For `COCc1c(-c2ccc(NC(=O)Nc3cc(C(F)(F)F)ccc3F)c(F)c2)c2c(N)ncnn2c1CN1CCOCC1`, the Kd is > 30 µM (inactive) at Obg-like ATPase 1; > 30 µM (inactive) in assay [1]; 1.26 µM (active) in assay [2]; > 30 µM (inactive) in assay [3]; > 30 µM (inactive) on LIM domain kinase 1; > 30 µM (inactive) in assay [4]. The Kd in assay [5] and in assay [6] was > 30 µM (inactive) each time.
Regarding `Cc1nc(NC(=O)N2CCC[C@H]2C(N)=O)sc1-c1ccnc(C(C)(C)C(F)(F)F)c1` [ALPELISIB], the Kd (at Obg-like ATPase 1; in assay [1]; in assay [2]; in assay [3]; at LIM domain kinase 1; in assay [4]) was > 30 µM (inactive) in each case. The Kd in assay [5] and in assay [6] was > 30 µM (inactive) throughout.
Take `Cc1csc(-c2nnc(Nc3ccc(Oc4ncccc4-c4ccnc(N)n4)cc3)c3ccccc23)c1` [AMG-900]: the Kd (on Obg-like ATPase 1; in assay [1]; in assay [2]; in assay [3]; at LIM domain kinase 1; in assay [4]) was > 30 µM (inactive) in each case. Moreover, the Kd in assay [5] and in assay [6] was > 30 µM (inactive) in each case.
For the molecule `C=CC(=O)Nc1cc2c(Nc3ccc(F)c(Cl)c3)ncnc2cc1C#CC(C)(C)N1CCN(C)CC1` [AV-412 FREE BASE], the Kd (at Obg-like ATPase 1; in assay [1]; in assay [2]; in assay [3]; on LIM domain kinase 1; in assay [4]) was > 30 µM (inactive) each time. Besides, the Kd in assay [5] and in assay [6] was > 30 µM (inactive) each time.
Regarding `COc1cc([C@@H]2c3cc4c(cc3[C@H](O)[C@H]3COC(=O)[C@@H]23)OCO4)cc(OC)c1OC` [AXL-1717], the Kd (at Obg-like ATPase 1; in assay [1]; in assay [2]; in assay [3]; on LIM domain kinase 1; in assay [4]) was > 30 µM (inactive) each time. Further, the Kd in assay [5] and in assay [6] was > 30 µM (inactive) each time.
For the molecule `Cc1cc(C(=O)NOCCO)c(Nc2ccc(I)cc2F)n(C)c1=O` [AZD-8330], the Kd (at Obg-like ATPase 1; in assay [1]; in assay [2]; in assay [3]; on LIM domain kinase 1; in assay [4]) was > 30 µM (inactive) each time. For the same molecule, the Kd in assay [5] and in assay [6] was > 30 µM (inactive) throughout.
As to `Cn1cnc2c(F)c(Nc3ccc(Br)cc3F)c(C(=O)NOCCO)cc21` [BINIMETINIB], the Kd (on Obg-like ATPase 1; in assay [1]; in assay [2]; in assay [3]; on LIM domain kinase 1; in assay [4]) was > 30 µM (inactive) throughout. For the same molecule, the Kd in assay [5] and in assay [6] was > 30 µM (inactive) each time.
Regarding `C#Cc1cccc(Nc2ncnc3cc(OC)c(OCCCCCCC(=O)NO)cc23)c1` [CUDC-101], the Kd (on Obg-like ATPase 1; in assay [2]; in assay [3]; at LIM domain kinase 1; in assay [4]; in assay [5]) was > 30 µM (inactive) throughout. In assay [6], the Kd is > 30 µM (inactive).
Turning to `Cn1cc(-c2cnn3c(N)c(Br)c([C@@H]4CCCNC4)nc23)cn1` [SCH-900776], the Kd (on Obg-like ATPase 1; in assay [2]; in assay [3]; on LIM domain kinase 1; in assay [4]; in assay [5]) was > 30 µM (inactive) in each case. Also, the Kd in assay [6] is > 30 µM (inactive).
On to `Cn1ncc(Cl)c1-c1cc(C(=O)N[C@H](CN)Cc2ccc(F)c(F)c2)oc1Cl` [UPROSERTIB], for which the Kd (at Obg-like ATPase 1; in assay [2]; in assay [3]; at LIM domain kinase 1; in assay [4]; in assay [5]) was > 30 µM (inactive) in each case. The Kd in assay [6] was > 30 µM (inactive).
